Source: ChEMBL document CHEMBL1201861, “Genomics of Drug Sensitity in Cancer screening data, Wellcome Trust Sanger Institute”

Tests used:
Assay in all cases: cells
Details in all cases: Homo sapiens
SW872 = type: functional, cell-based;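 note: growth inhibition of SW872 cells, read out by a viability assay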
Description: SANGER: Inhibition of human SW872 cell growth in a cell viability assay.

TE-1 = type: functional, cell-based;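 note: growth inhibition of the human TE-1 cell line, read out with a cell viability assay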
Description: SANGER: Inhibition of human TE-1 cell growth in a cell viability assay.

SJRH30 = type: functional, cell-based;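 note: growth inhibition of human SJRH30 cells, read out with a cell viability assay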
Description: SANGER: Inhibition of human SJRH30 cell growth in a cell viability assay.

LB2518-MEL = type: functional, cell-based;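 note: growth inhibition of human LB2518-MEL cells, measured with a cell viability assay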
Description: SANGER: Inhibition of human LB2518-MEL cell growth in a cell viability assay.

GI-ME-N = type: functional, cell-based;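 note: growth inhibition of human GI-ME-N cells, read out with a cell viability assay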
Description: SANGER: Inhibition of human GI-ME-N cell growth in a cell viability assay.

HCC1187 = type: functional, cell-based;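 note: growth inhibition of HCC1187 cells, read out with a cell viability assay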
Description: SANGER: Inhibition of human HCC1187 cell growth in a cell viability assay.

QIMR-WIL = type: functional, cell-based;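 note: growth inhibition of QIMR-WIL cells, read out with a cell viability assay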
Description: SANGER: Inhibition of human QIMR-WIL cell growth in a cell viability assay.

IST-SL1 = type: functional, cell-based;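 note: growth inhibition of human IST-SL1 cells, read out with a cell viability assay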
Description: SANGER: Inhibition of human IST-SL1 cell growth in a cell viability assay.

HAL-01 = type: functional, cell-based;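 note: growth inhibition of human HAL-01 cells, read out with a cell viability assay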
Description: SANGER: Inhibition of human HAL-01 cell growth in a cell viability assay.

SF-268 = type: functional, cell-based;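 note: growth inhibition of SF-268 cells determined with a cell viability assay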
Description: SANGER: Inhibition of human SF268 cell growth in a cell viability assay.

NB10 = type: functional, cell-based;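 note: growth inhibition of NB10 cells, read out by a cell viability assay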
Description: SANGER: Inhibition of human NB10 cell growth in a cell viability assay.

LS-1034 = type: functional, cell-based
Description: SANGER: Inhibition of human LS-1034 cell growth in a cell viability assay.

HOP-62 = type: functional, cell-based;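 note: cell growth inhibition determined with a viability assay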
Description: SANGER: Inhibition of human HOP-62 cell growth in a cell viability assay.

AM-38 = type: functional, cell-based;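 note: growth inhibition of AM-38 cells of human origin, read out by a cell viability assay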
Description: SANGER: Inhibition of human AM-38 cell growth in a cell viability assay.

HCT-116 = type: functional, cell-based
Description: SANGER: Inhibition of human HCT-116 cell growth in a cell viability assay.

SK-MEL-2 = type: functional, cell-based;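 note: growth inhibition of human SK-MEL-2 cells measured with a cell viability assay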
Description: SANGER: Inhibition of human SK-MEL-2 cell growth in a cell viability assay.

SNU-C2B = type: functional, cell-based;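 note: cell viability readout used to measure compound-driven suppression of SNU-C2B cell proliferation, IC50 marking half-maximal growth inhibition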
Description: SANGER: Inhibition of human SNU-C2B cell growth in a cell viability assay.

ES8 = type: functional, cell-based;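 note: growth inhibition of human ES8 cells, read out with a cell viability assay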
Description: SANGER: Inhibition of human ES8 cell growth in a cell viability assay.

RPMI-8866 = type: functional, cell-based
Description: SANGER: Inhibition of human RPMI-8866 cell growth in a cell viability assay.

P30-OHK = type: functional, cell-based;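 note: growth inhibition of the P30-OHK cell line, read out with a cell viability assay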
Description: SANGER: Inhibition of human P30-OHK cell growth in a cell viability assay.

LAN-6 = type: functional, cell-based;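 note: growth inhibition of LAN-6 cells, determined with a cell viability assay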
Description: SANGER: Inhibition of human LAN-6 cell growth in a cell viability assay.

MDA-MB-175-VII = type: functional, cell-based
EW-22 = type: functional, cell-based;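 note: growth inhibition of the EW-22 cell line, measured with a cell viability readout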
Description: SANGER: Inhibition of human EW-22 cell growth in a cell viability assay.

SJSA-1 = type: functional, cell-based;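 note: growth inhibition of human SJSA-1 cells, read out through a cell viability measurement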
Description: SANGER: Inhibition of human SJSA-1 cell growth in a cell viability assay.

NOS-1 = type: functional, cell-based;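 note: growth inhibition of the human NOS-1 cell line, read out with a cell viability assay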
Description: SANGER: Inhibition of human NOS-1 cell growth in a cell viability assay.

NMC-G1 = type: functional, cell-based;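 note: growth inhibition of the NMC-G1 cell line, measured with a cell viability read-out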
Description: SANGER: Inhibition of human NMC-G1 cell growth in a cell viability assay.

LS-123 = type: functional, cell-based
Description: SANGER: Inhibition of human LS-123 cell growth in a cell viability assay.

PSN1 = type: functional, cell-based;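 note: suppression of growth of human PSN1 cells, read out by a cell viability assay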
Description: SANGER: Inhibition of human PSN1 cell growth in a cell viability assay.

SBC-5 = type: functional, cell-based;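 note: cell viability assay read-out, IC50 is the concentration that inhibits growth of the cells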
Description: SANGER: Inhibition of human SBC-5 cell growth in a cell viability assay.

RS4-11 = type: functional, cell-based;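 note: growth inhibition of RS4-11 cells, read out by a cell viability assay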
Description: SANGER: Inhibition of human RS4-11 cell growth in a cell viability assay.

HCE-T = type: functional, cell-based;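 note: cell viability assay read-out, reporting inhibition of HCE-T cell growth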
Description: SANGER: Inhibition of human HCE-T cell growth in a cell viability assay.

NCI-H747 = type: functional, cell-based;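 note: growth inhibition of human NCI-H747 cells, read out by a cell viability assay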
Description: SANGER: Inhibition of human NCI-H747 cell growth in a cell viability assay.

ACN = type: functional, cell-based;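 note: growth inhibition of the human ACN cell line, read out via cell viability testing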
Description: SANGER: Inhibition of human ACN cell growth in a cell viability assay.

NKM-1 = type: functional, cell-based;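 note: growth inhibition of NKM-1 cells, read out with a cell viability assay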
Description: SANGER: Inhibition of human NKM-1 cell growth in a cell viability assay.

OVCAR-4 = type: functional, cell-based;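 note: growth inhibition of human OVCAR-4 cells, measured with a cell viability assay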
Description: SANGER: Inhibition of human OVCAR-4 cell growth in a cell viability assay.

NCI-H1581 = type: functional, cell-based;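 note: cell growth inhibition read out by a viability assay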
Description: SANGER: Inhibition of human NCI-H1581 cell growth in a cell viability assay.

K5 = type: functional, cell-based
Description: SANGER: Inhibition of human K5 cell growth in a cell viability assay.

GCIY = type: functional, cell-based;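 note: growth inhibition of the human GCIY cell line, read out by a cell viability assay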
Description: SANGER: Inhibition of human GCIY cell growth in a cell viability assay.

CAS-1 = type: functional, cell-based;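 note: growth inhibition of CAS-1 cells, measured with a cell viability assay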
Description: SANGER: Inhibition of human CAS-1 cell growth in a cell viability assay.

DK-MG = type: functional, cell-based;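 note: growth inhibition of DK-MG cells, read out with a cell viability assay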
Description: SANGER: Inhibition of human DK-MG cell growth in a cell viability assay.

MPP-89 = type: functional, cell-based;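 note: growth inhibition of human MPP-89 cells, read out with a cell viability assay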
Description: SANGER: Inhibition of human MPP-89 cell growth in a cell viability assay.

SCC-15 = type: functional, cell-based;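 note: growth inhibition of SCC-15 cells, read out with a cell viability assay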
Description: SANGER: Inhibition of human SCC-15 cell growth in a cell viability assay.

NB6 = type: functional, cell-based;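 note: growth inhibition of NB6 cells, read out by a cell viability assay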
Description: SANGER: Inhibition of human NB6 cell growth in a cell viability assay.

DJM-1 = type: functional, cell-based;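 note: growth inhibition of human DJM-1 cells, read out by a cell viability assay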
Description: SANGER: Inhibition of human DJM-1 cell growth in a cell viability assay.

LS-411N = type: functional, cell-based
COLO-829 = type: functional, cell-based
Description: SANGER: Inhibition of human COLO-829 cell growth in a cell viability assay.

BHY = type: functional, cell-based;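 note: cell growth inhibition read out by a viability assay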
Description: SANGER: Inhibition of human BHY cell growth in a cell viability assay.

CHP-212 = type: functional, cell-based
Description: SANGER: Inhibition of human CHP-212 cell growth in a cell viability assay.

U2OS = type: functional, cell-based, U-2-OS;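 note: growth inhibition of human U-2-OS cells, determined with a cell viability assay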
Description: SANGER: Inhibition of human U-2-OS cell growth in a cell viability assay.

NCI-H526 = type: functional, cell-based;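 note: growth inhibition of the human NCI-H526 cell line, measured by a cell viability assay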
Description: SANGER: Inhibition of human NCI-H526 cell growth in a cell viability assay.

OVCAR-5 = type: functional, cell-based;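 note: growth inhibition of human OVCAR-5 cells, read out with a cell viability assay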
Description: SANGER: Inhibition of human OVCAR-5 cell growth in a cell viability assay.

ESS-1 = type: functional, cell-based;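 note: growth inhibition of human ESS-1 cells, read out by a cell viability assay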
Description: SANGER: Inhibition of human ESS-1 cell growth in a cell viability assay.

SHP77 = type: functional, cell-based, SHP-77;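 note: growth inhibition of human SHP-77 cells measured by a cell viability assay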
Description: SANGER: Inhibition of human SHP-77 cell growth in a cell viability assay.

A4-Fuk = type: functional, cell-based;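 note: growth inhibition of A4-Fuk cells, read out by a cell viability assay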
Description: SANGER: Inhibition of human A4-Fuk cell growth in a cell viability assay.

COLO-320-HSR = type: functional, cell-based;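 note: growth inhibition of COLO-320-HSR cells, determined with a cell viability assay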
Description: SANGER: Inhibition of human COLO-320-HSR cell growth in a cell viability assay.

MFH-ino = type: functional, cell-based;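 note: growth inhibition of human MFH-ino cells, read out by a cell viability assay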
Description: SANGER: Inhibition of human MFH-ino cell growth in a cell viability assay.

HCE-4 = type: functional, cell-based;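 note: cell viability assay measuring inhibition of growth in the human HCE-4 cell line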
Description: SANGER: Inhibition of human HCE-4 cell growth in a cell viability assay.

HH = type: functional, cell-based
Description: SANGER: Inhibition of human HH cell growth in a cell viability assay.

UACC-257 = type: functional, cell-based
Description: SANGER: Inhibition of human UACC-257 cell growth in a cell viability assay.

NCI-H69 = type: functional, cell-based
Description: SANGER: Inhibition of human NCI-H69 cell growth in a cell viability assay.

NCI-H720 = type: functional, cell-based
Description: SANGER: Inhibition of human NCI-H720 cell growth in a cell viability assay.

JVM-2 = type: functional, cell-based
Description: SANGER: Inhibition of human JVM-2 cell growth in a cell viability assay.

EW-18 = type: functional, cell-based
Description: SANGER: Inhibition of human EW-18 cell growth in a cell viability assay.

EOL1 = type: functional, cell-based
Description: SANGER: Inhibition of human EoL-1-cell cell growth in a cell viability assay.

Lu-65 = type: functional, cell-based
Description: SANGER: Inhibition of human LU-65 cell growth in a cell viability assay.

NCI-H209 = type: functional, cell-based
Description: SANGER: Inhibition of human NCI-H209 cell growth in a cell viability assay.

O=c1cc(N2CCOCC2)oc2c(-c3cccc4c3sc3ccccc34)cccc12
IC50 (SW872): > 2000 nM | IC50 (TE-1): > 2000 nM | IC50 (SJRH30): > 2000 nM | IC50 (LB2518-MEL): > 2000 nM | IC50 (GI-ME-N): > 2000 nM | IC50 (HCC1187): > 2000 nM | IC50 (QIMR-WIL): > 2000 nM | IC50 (IST-SL1): > 2000 nM | IC50 (HAL-01): > 2000 nM | IC50 (SF-268): > 2000 nM | IC50 (NB10): > 2000 nM | IC50 (LS-1034): > 2000 nM | IC50 (HOP-62): > 2000 nM | IC50 (AM-38): > 2000 nM | IC50 (HCT-116): > 2000 nM | IC50 (SK-MEL-2): > 2000 nM | IC50 (SNU-C2B): > 2000 nM | IC50 (ES8): > 2000 nM | IC50 (RPMI-8866): > 2000 nM | IC50 (P30-OHK): > 2000 nM | IC50 (LAN-6): > 2000 nM | IC50 (MDA-MB-175-VII): > 2000 nM | IC50 (EW-22): > 2000 nM | IC50 (SJSA-1): > 2000 nM | IC50 (NOS-1): > 2000 nM | IC50 (NMC-G1): > 2000 nM | IC50 (LS-123): > 2000 nM | IC50 (PSN1): > 2000 nM | IC50 (SBC-5): > 2000 nM | IC50 (RS4-11): > 2000 nM | IC50 (HCE-T): > 2000 nM | IC50 (NCI-H747): > 2000 nM | IC50 (ACN): > 2000 nM | IC50 (NKM-1): > 2000 nM | IC50 (OVCAR-4): > 2000 nM | IC50 (NCI-H1581): > 2000 nM | IC50 (K5): > 2000 nM | IC50 (GCIY): > 2000 nM | IC50 (CAS-1): > 2000 nM | IC50 (DK-MG): > 2000 nM | IC50 (MPP-89): > 2000 nM | IC50 (SCC-15): > 2000 nM | IC50 (NB6): > 2000 nM | IC50 (DJM-1): > 2000 nM | IC50 (LS-411N): > 2000 nM | IC50 (COLO-829): > 2000 nM | IC50 (BHY): > 2000 nM | IC50 (CHP-212): > 2000 nM | IC50 (U2OS): > 2000 nM | IC50 (NCI-H526): 284 nM | IC50 (OVCAR-5): > 2000 nM | IC50 (ESS-1): > 2000 nM | IC50 (SHP77): > 2000 nM | IC50 (A4-Fuk): > 2000 nM | IC50 (COLO-320-HSR): > 2000 nM | IC50 (MFH-ino): > 2000 nM | IC50 (HCE-4): > 2000 nM | IC50 (HH): 1180 nM | IC50 (UACC-257): > 2000 nM

CC(=O)c1c(C)c2cnc(Nc3ccc(N4CCNCC4)cn3)nc2n(C2CCCC2)c1=O [PALBOCICLIB]
IC50 (SW872): 1980 nM | IC50 (TE-1): > 4000 nM | IC50 (NCI-H69): > 4000 nM | IC50 (SJRH30): > 4000 nM | IC50 (LB2518-MEL): > 4000 nM | IC50 (GI-ME-N): > 4000 nM | IC50 (HCC1187): > 4000 nM | IC50 (NCI-H720): > 4000 nM | IC50 (QIMR-WIL): 1130 nM | IC50 (IST-SL1): > 4000 nM | IC50 (HAL-01): 606 nM | IC50 (JVM-2): > 4000 nM | IC50 (SF-268): 2230 nM | IC50 (NB10): 599 nM | IC50 (LS-1034): > 4000 nM | IC50 (AM-38): > 4000 nM | IC50 (HCT-116): > 4000 nM | IC50 (SK-MEL-2): > 4000 nM | IC50 (SNU-C2B): > 4000 nM | IC50 (ES8): 605 nM | IC50 (EW-18): > 4000 nM | IC50 (RPMI-8866): 1590 nM | IC50 (P30-OHK): > 4000 nM | IC50 (LAN-6): > 4000 nM | IC50 (EOL1): 187 nM | IC50 (MDA-MB-175-VII): > 4000 nM | IC50 (EW-22): > 4000 nM | IC50 (SJSA-1): 2380 nM | IC50 (NOS-1): > 4000 nM | IC50 (NMC-G1): > 4000 nM | IC50 (LS-123): > 4000 nM | IC50 (PSN1): > 4000 nM | IC50 (SBC-5): > 4000 nM | IC50 (RS4-11): 505 nM | IC50 (HCE-T): > 4000 nM | IC50 (NCI-H747): 2320 nM | IC50 (ACN): > 4000 nM | IC50 (NKM-1): 412 nM | IC50 (OVCAR-4): > 4000 nM | IC50 (NCI-H1581): > 4000 nM | IC50 (GCIY): > 4000 nM | IC50 (CAS-1): > 4000 nM | IC50 (DK-MG): > 4000 nM | IC50 (MPP-89): > 4000 nM | IC50 (SCC-15): > 4000 nM | IC50 (NB6): 2400 nM | IC50 (DJM-1): > 4000 nM | IC50 (LS-411N): > 4000 nM | IC50 (BHY): 1470 nM | IC50 (CHP-212): 594 nM | IC50 (U2OS): 3730 nM | IC50 (Lu-65): > 4000 nM | IC50 (NCI-H526): > 4000 nM | IC50 (OVCAR-5): 900 nM | IC50 (ESS-1): > 4000 nM | IC50 (SHP77): > 4000 nM | IC50 (A4-Fuk): > 4000 nM | IC50 (COLO-320-HSR): > 4000 nM | IC50 (HCE-4): > 4000 nM | IC50 (HH): 599 nM | IC50 (UACC-257): > 4000 nM | IC50 (NCI-H209): > 4000 nM
